Laboratory results taken from patent US8076487B2, “Pyridone derivative and herbicide” (Kumiai Chemical Industry Co., Ltd., priority 2006, dated 2011).

How the values were obtained:
Assay type in all cases: in vivo
[1] = tested on: Japanese bulrush (Scirpus juncoides Roxb.); test: Test Example 1: herbicidal effect by soil application to paddy field; settings: paddy field soil application; active ingredient 1,000 g per 1 hectare; wettable powder added dropwise to water surface the day after sowing; examined on the 21st day after application
Summary of the method: (§1)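 Under greenhouse conditions, seeds sown on puddled paddy soil in 100 cm2 pots under 3 cm of standing water received the test compound; injury was assessed with a standard scoring scheme three weeks (day 21) after treatment.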

[2] = tested on: early watergrass (Echinochloa oryzicola Vasing); test: as above; settings: paddy field soil application; active ingredient 1,000 g per 1 hectare; wettable powder added dropwise to water surface the day after sowing; examined on the 21st day after application
Summary of the method: as §1

[3] = tested on: heartshape false pickerelweed (Monochoria vaginalis (Burm.f.) C.Presl); test: as above; settings: paddy field soil application; active ingredient 1,000 g per 1 hectare; wettable powder added dropwise to water surface the day after sowing; examined on the 21st day after application
Summary of the method: as §1

[4] = tested on: barnyardgrass (Echinochloa crus-galli (L.) P. Beauv. var. crus-galli); test: Test Example 2: herbicidal effect by soil application to upland field; settings: soil surface spray, upland field soil, 1,000 g active ingredient per hectare, 21st day after application
Summary of the method: (§2)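 Scoring on a standard scale took place 21 days after application, with plants kept in a greenhouse. Active ingredient (1,000 g/ha, as diluted wettable powder, 1,000 L/ha) was sprayed evenly onto soil directly after sowing and covering seeds.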

[5] = tested on: green foxtail (Setaria viridis (L.) P. Beauv.); test: as above; settings: soil surface spray, upland field soil, 1,000 g active ingredient per hectare, 21st day after application
Summary of the method: as §2

[6] = tested on: slender amaranth (Amaranthus viridis L.); test: as above; settings: soil surface spray, upland field soil, 1,000 g active ingredient per hectare, 21st day after application
Summary of the method: as §2

[7] = tested on: velvetleaf (Abutilon theophrasti medicus); test: as above; settings: soil surface spray, upland field soil, 1,000 g active ingredient per hectare, 21st day after application
Summary of the method: as §2

[8] = tested on: barnyardgrass (Echinochloa crus-galli (L.) P. Beauv. var. crus-galli); test: Test Example 3: herbicidal effect by application to upland field (foliage treatment); settings: 14th day after application; for herbicidal effect, Barnyardgrass: foliage treatment, 1,000 g active ingredient per 1 hectare, greenhouse; for herbicidal effect (index), Barnyardgrass: foliage treatment, plants grown two weeks, 1,000 g active ingredient per hectare
Summary of the method: (§3)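 Two weeks after sowing in field soil under greenhouse conditions, seedlings receive a top-down foliar spray of wettable powder diluted in water at an active-ingredient rate of 1,000 g per hectare. Effect is rated against a standard 14 days post-treatment.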

[9] = tested on: green foxtail (Setaria viridis (L.) P. Beauv.); test: as above; settings: 14th day after application; for herbicidal effect, Green Foxtail: foliage treatment, 1,000 g active ingredient per 1 hectare, greenhouse; for herbicidal effect (index), Green Foxtail: foliage treatment, plants grown two weeks, 1,000 g active ingredient per hectare
Summary of the method: as §3

[10] = tested on: slender amaranth (Amaranthus viridis L.); test: as above; settings: 14th day after application; for herbicidal effect, Slender Amaranth: foliage treatment, 1,000 g active ingredient per 1 hectare, greenhouse; for herbicidal effect (index), Slender Amaranth: foliage treatment, plants grown two weeks, 1,000 g active ingredient per hectare
Summary of the method: as §3

[11] = tested on: velvetleaf (Abutilon theophrasti medicus); test: as above; settings: 14th day after application; for herbicidal effect, Velvetleaf: foliage treatment, 1,000 g active ingredient per 1 hectare, greenhouse; for herbicidal effect (index), Velvetleaf: foliage treatment, plants grown two weeks, 1,000 g active ingredient per hectare
Summary of the method: as §3

| Compound | herbicidal effect, Scirpus juncoides Roxb. [1] | herbicidal effect, Echinochloa oryzicola Vasing [2] | herbicidal effect, Monochoria vaginalis (Burm. f.) C. Presl [3] | herbicidal effect (index), Barnyardgrass [4] | herbicidal effect (index), Green Foxtail [5] | herbicidal effect (index), Slender Amaranth [6] | herbicidal effect (index), Velvetleaf [7] | herbicidal effect, Barnyardgrass [8] | herbicidal effect, Green Foxtail [9] | herbicidal effect, Slender Amaranth [10] | herbicidal effect, Velvetleaf [11] | herbicidal effect (index), Barnyardgrass [8] | herbicidal effect (index), Green Foxtail [9] | herbicidal effect (index), Slender Amaranth [10] | herbicidal effect (index), Velvetleaf [11] |
| --- | --- | --- | --- | --- | --- | --- | --- | --- | --- | --- | --- | --- | --- | --- | --- |
| Cn1ncc(C(=O)c2ccc(C(F)(F)F)n(C3CCCC3)c2=O)c1O [IV-21] | 5 (90% or more of herbicidal effect and crop phytotoxicity) | 5 (90% or more of herbicidal effect and crop phytotoxicity) | 5 (90% or more of herbicidal effect and crop phytotoxicity) | 3 (50 to less than 70% of herbicidal effect and crop phytotoxicity) | 5 (90% or more of herbicidal effect and crop phytotoxicity) | 5 (90% or more of herbicidal effect and crop phytotoxicity) | 5 (90% or more of herbicidal effect and crop phytotoxicity) | 5 (90% or more of herbicidal effect and crop phytotoxicity) | 4 (70 to less than 90% of herbicidal effect and crop phytotoxicity) | 5 (90% or more of herbicidal effect and crop phytotoxicity) | 5 (90% or more of herbicidal effect and crop phytotoxicity) | – | – | – | – |
| CCCCNn1c(C(F)(F)F)ccc(C(=O)C2=C(O)CCCC2=O)c1=O [I-161] | 5 (90% or more of herbicidal effect and crop phytotoxicity) | 5 (90% or more of herbicidal effect and crop phytotoxicity) | 5 (90% or more of herbicidal effect and crop phytotoxicity) | 5 (90% or more of herbicidal effect and crop phytotoxicity) | 5 (90% or more of herbicidal effect and crop phytotoxicity) | 5 (90% or more of herbicidal effect and crop phytotoxicity) | 5 (90% or more of herbicidal effect and crop phytotoxicity) | 5 (90% or more of herbicidal effect and crop phytotoxicity) | 5 (90% or more of herbicidal effect and crop phytotoxicity) | 5 (90% or more of herbicidal effect and crop phytotoxicity) | 5 (90% or more of herbicidal effect and crop phytotoxicity) | – | – | – | – |
| O=C(C1=C(O)C2CCC(C2)C1=O)c1ccc(C(F)(F)F)n(C2CCCC2)c1=O (stereo not shown) [III-11] | 5 (90% or more of herbicidal effect and crop phytotoxicity) | 5 (90% or more of herbicidal effect and crop phytotoxicity) | 5 (90% or more of herbicidal effect and crop phytotoxicity) | 4 (70 to less than 90% of herbicidal effect and crop phytotoxicity) | 4 (70 to less than 90% of herbicidal effect and crop phytotoxicity) | 5 (90% or more of herbicidal effect and crop phytotoxicity) | 5 (90% or more of herbicidal effect and crop phytotoxicity) | 5 (90% or more of herbicidal effect and crop phytotoxicity) | 5 (90% or more of herbicidal effect and crop phytotoxicity) | 5 (90% or more of herbicidal effect and crop phytotoxicity) | 5 (90% or more of herbicidal effect and crop phytotoxicity) | – | – | – | – |
| COCCn1c(C(F)(F)F)ccc(C(=O)C2=C(O)CCCC2=O)c1=O [I-31] | 5 (90% or more of herbicidal effect and crop phytotoxicity) | 5 (90% or more of herbicidal effect and crop phytotoxicity) | 5 (90% or more of herbicidal effect and crop phytotoxicity) | 5 (90% or more of herbicidal effect and crop phytotoxicity) | 5 (90% or more of herbicidal effect and crop phytotoxicity) | 5 (90% or more of herbicidal effect and crop phytotoxicity) | 5 (90% or more of herbicidal effect and crop phytotoxicity) | – | – | – | – | 5 (90% or more of herbicidal effect and crop phytotoxicity) | 5 (90% or more of herbicidal effect and crop phytotoxicity) | 5 (90% or more of herbicidal effect and crop phytotoxicity) | 5 (90% or more of herbicidal effect and crop phytotoxicity) |
| Cn1c(C(F)(F)F)ccc(C(=O)C2=C(O)C3CCC(C3)C2=O)c1=O (stereo not shown) [III-1] | 5 (90% or more of herbicidal effect and crop phytotoxicity) | 5 (90% or more of herbicidal effect and crop phytotoxicity) | 5 (90% or more of herbicidal effect and crop phytotoxicity) | 5 (90% or more of herbicidal effect and crop phytotoxicity) | 5 (90% or more of herbicidal effect and crop phytotoxicity) | 5 (90% or more of herbicidal effect and crop phytotoxicity) | 5 (90% or more of herbicidal effect and crop phytotoxicity) | 4 (70 to less than 90% of herbicidal effect and crop phytotoxicity) | 5 (90% or more of herbicidal effect and crop phytotoxicity) | 5 (90% or more of herbicidal effect and crop phytotoxicity) | 5 (90% or more of herbicidal effect and crop phytotoxicity) | – | – | – | – |
| CCCCn1c(C(F)(F)F)ccc(C(=O)c2cnn(C)c2O)c1=O [IV-6] | 5 (90% or more of herbicidal effect and crop phytotoxicity) | 5 (90% or more of herbicidal effect and crop phytotoxicity) | 5 (90% or more of herbicidal effect and crop phytotoxicity) | 5 (90% or more of herbicidal effect and crop phytotoxicity) | 5 (90% or more of herbicidal effect and crop phytotoxicity) | 5 (90% or more of herbicidal effect and crop phytotoxicity) | 5 (90% or more of herbicidal effect and crop phytotoxicity) | 5 (90% or more of herbicidal effect and crop phytotoxicity) | 5 (90% or more of herbicidal effect and crop phytotoxicity) | 5 (90% or more of herbicidal effect and crop phytotoxicity) | 5 (90% or more of herbicidal effect and crop phytotoxicity) | – | – | – | – |
| CCCS(=O)(=O)Oc1c(C(=O)c2ccc(C(F)(F)F)n(-c3ccc4c(c3)OCO4)c2=O)cnn1CC [IV-99] | 5 (90% or more of herbicidal effect and crop phytotoxicity) | 5 (90% or more of herbicidal effect and crop phytotoxicity) | 5 (90% or more of herbicidal effect and crop phytotoxicity) | 5 (90% or more of herbicidal effect and crop phytotoxicity) | 3 (50 to less than 70% of herbicidal effect and crop phytotoxicity) | 4 (70 to less than 90% of herbicidal effect and crop phytotoxicity) | 4 (70 to less than 90% of herbicidal effect and crop phytotoxicity) | 5 (90% or more of herbicidal effect and crop phytotoxicity) | 5 (90% or more of herbicidal effect and crop phytotoxicity) | 5 (90% or more of herbicidal effect and crop phytotoxicity) | 5 (90% or more of herbicidal effect and crop phytotoxicity) | – | – | – | – |
| CCOCCn1c(C(F)(F)F)ccc(C(=O)C2=C(O)CCCC2=O)c1=O [I-32] | 5 (90% or more of herbicidal effect and crop phytotoxicity) | 5 (90% or more of herbicidal effect and crop phytotoxicity) | 5 (90% or more of herbicidal effect and crop phytotoxicity) | 5 (90% or more of herbicidal effect and crop phytotoxicity) | 5 (90% or more of herbicidal effect and crop phytotoxicity) | 5 (90% or more of herbicidal effect and crop phytotoxicity) | 5 (90% or more of herbicidal effect and crop phytotoxicity) | – | – | – | – | 5 (90% or more of herbicidal effect and crop phytotoxicity) | 5 (90% or more of herbicidal effect and crop phytotoxicity) | 5 (90% or more of herbicidal effect and crop phytotoxicity) | 5 (90% or more of herbicidal effect and crop phytotoxicity) |
